From US5373020A, “Substituted 5-(2-((2-aryl-2-hydroxyethyl)amino)propyl)-1,3-benzodioxoles” (American Cyanamid Company, priority 1993, dated 1994)

Assays:
[1] = system: db/db mice; assay: Plasma glucose, compound in chow, diabetic mice; format: in vivo, mouse (C57 B1/KsJ db/db)
Description: (§1) The compounds of this invention were tested for hypoglycemic and anti-obesity activity according to the following procedure.
(§2) Obese mice (C57 B1/6J (ob/ob)), and/or diabetic mice (C57 B1/KsJ (db/db)) were obtained from Jackson Laboratories, Bar Harbor, Maine. Obese rats (fa/fa) were obtained from Charles River Laboratories, Wilmington, Mass. Obese mice were 8 weeks of age and diabetic mice were 9 weeks of age at the start of the test. Obese rats were 12-14 weeks of age at the start.
(§3) The test compounds were dissolved in methanol, mixed with powdered Purina rodent chow on a weight of compound to weight of chow basis and thoroughly dried.
(§4) Groups of 6 control mice or rats received vehicle (methanol) treated chow.
(§5) Groups of 6 test mice were fed ad libitum for up to seven weeks and food consumption was measured daily by weighing the food bins before and after the addition of fresh chow. Thus, a 40 g mouse, fed the test compound at a concentration of 0.02 percent of the diet, would receive a dose of 20 mg/kg/day if it ate 4 g of chow per day.
(§6) The mice or rats were weighed before the first treatment and once at the end of each indicated treatment period.
(§7) Blood samples were collected before the first treatment and once at the end of each indicated treatment period by retro-orbital puncture using heparinized capillary tubes.
(§8) Plasma was separated by centrifugation in a Beckman microfuge for 5 minutes. Plasma glucose concentrations were determined with the Beckman glucose analyzer which uses a glucose oxidase method.

[2] = system: ob/ob mice; assay: Plasma glucose, compound in chow, obese mice; format: in vivo, mouse (C57 B1/6J ob/ob)
Description: as §1, §2, §3, §4
[…] Thus, a 40 g mouse, fed the test compound at a concentration of 0.02 percent of the diet, would receive a dose of 20 mg/kg/day if it ate 4 g of chow per day.
as §6, §7, §8

[3] = target: T1, β3-receptors (Rattus norvegicus, UniProt P26255); assay: Stimulation of adipocyte lipolysis (β3-effect); format: cell-based; conditions: CL1 vs BRL1 (FIG. 1), CL2 vs BRL2 (FIG. 2)
T1 construct: Rat epididymal fat pads were excised and placed in 0.9% saline; from tissue; host or cells: collagenase-isolated adipocytes from rat epididymal fat pads
Description: (§9) β-Adrenergic receptors can be divided into β1, β2 and β3 -subtypes. Activation of β1 -receptors invokes increases in heart rate while activation of β2 -receptors stimulates glycogen breakdown in muscle and thereby prevents glycogen synthesis. Activation of β3 -receptors stimulates lipolysis (the breakdown of adipose tissue triglycerides to glycerol and free fatty acids), and thereby promotes the loss of fat mass.
The β3 -effect of the compounds was determined by their ability to stimulate adipocyte lipolysis. Rat epididymal fat pads were excised and placed in 0.9% saline. Four grams of tissue were transferred to a flask with 20 ml of aerated Krebs-Henseleit bicarbonate (KHB) buffer containing 3% fatty acid-free bovine serum albumin to which 75 mg of crude bacterial collagenase (Worthington) had been added. The tissue was incubated for about 45 minutes at 37° C. with gentle shaking. The cells were then washed three times with two volumes of KHB buffer, filtered through two layers of gauze, and brought to a final volume of 80 ml with KHB buffer. One ml aliquots of the cell suspension were added to plastic test tubes containing the appropriate additions of vehicle or compound. The cells were gassed for 1 minute with 95% O2 -5% CO2, capped, and incubated at 37° C. with continuous shaking for a total of 30 minutes. The reaction was stopped by adding 0.1 ml of 30% perchloric acid and 0.1 ml of chloroform. After centrifugation, 0.5 ml of supernatant was transferred to another test tube and neutralized with 0.04 ml of 3M K2 CO3 -0.5M triethanolamine. The amount-of glycerol generated from the hydrolysis of endogenous triglycerides was determined in a coupled-enzyme spectrophotometric assay. […] The test tubes were incubated for 40 minutes at 37° C. with constant shaking. […] This value was corrected for the amount of NADH generated in the absence of glycerol by incubating another aliquot of the neutralized extract with the same assay mixture but without glycerokinase.

[4] = target: T2, β2-receptors (Mus musculus, UniProt P18762); assay: Inhibition of insulin-mediated incorporation of 14C-glucose into glycogen in isolated soleus muscle (β2-effect)
T2 construct: Soleus muscle from mice were dissected; from tissue; host or cells: mouse soleus muscle
Description: as §9
The β2 -effect of the compounds was determined by their ability to inhibit the insulin-mediated incorporation of ^14 C-glucose into glycogen in isolated muscle. Soleus muscle from mice were dissected, tied at each end, and placed in a clamp to maintain tension. The clamped muscle was added to a vial that contained 2 ml of KHB with 1.5% bovine serum albumin, 0.3 mU/ml insulin, 5 mM (U^-14 C) glucose, and the appropriate additions of compound or vehicle. The vial was gassed with 95% O2 -5% CO2, capped, and the tissue incubated for one hour in a rotating water bath at 37° C. The muscle was then removed, rinsed in ice-cold saline, blotted and weighed. It was then added to 1 ml of 30% KOH containing 5 mg/ml of oyster glycogen, boiled for 10 minutes, and 0.4 ml of 2% Na2 SO4 and 3.2 ml of 100% ethanol added. After standing overnight at 4° C., the glycogen was pelleted by centrifugation, washed once with 66% ethanol, and repelleted. The pellet was dissolved in 1 ml of water and the amount of radioactivity present determined by liquid scintillation.

[5] = system: ob/ob mice; assay: Change in weight and food consumption, compound in chow, obese mice; format: in vivo, mouse (C57 B1/6J ob/ob)
Description: as §1, §2, §3, §4, §5, §6

[6] = target: T3, β1-receptors (Cavia porcellus, UniProt H0W3H1); assay: Effect on heart rate of isolated right atria (β1-effect); parameters: species or system guinea pig
T3 construct: from tissue; host or cells: guinea pig right atria
Description: as §9
Selectivity of a compound was determined using the following procedures. The effect on heart rate (β1 -effect) was determined using isolated right atria. […] The right atria were dissected and clamped at one end to a tissue holder and electrode assembly (MRA Corp.) and tied at the other end to a force-displacement transducer (Gould-Statham, Burco). The tissues were maintained at 32° C. in a 50 ml capacity glass chamber (MRA Corp.) preloaded with 0.5 g tension. Heart rate was monitored by a Grass polygragh. […] The increase in heart rate was calculated and considered to be the maximum response for that tissue. The tissues were then washed and allowed to equilibrate for 90 minutes. Cumulative concentration-response curves were then determined for each compound or vehicle. All responses were measured 5 minutes post-exposure.

[7] = dose 0.002 % wt of chow, week 0 (before treatment)
[8] = dose 0.002 % wt of chow, week 1
[9] = dose 0.005 % wt of chow, week 0 (before treatment)
[10] = dose 0.005 % wt of chow, week 1
[11] = dose 0.002 % wt of chow, week 4
[12] = dose 0.005 % wt of chow, week 4
[13] = CL1 vs BRL1 (FIG. 1), CL2 vs BRL2 (FIG. 2)

T2 sequence (P18762 whole entry): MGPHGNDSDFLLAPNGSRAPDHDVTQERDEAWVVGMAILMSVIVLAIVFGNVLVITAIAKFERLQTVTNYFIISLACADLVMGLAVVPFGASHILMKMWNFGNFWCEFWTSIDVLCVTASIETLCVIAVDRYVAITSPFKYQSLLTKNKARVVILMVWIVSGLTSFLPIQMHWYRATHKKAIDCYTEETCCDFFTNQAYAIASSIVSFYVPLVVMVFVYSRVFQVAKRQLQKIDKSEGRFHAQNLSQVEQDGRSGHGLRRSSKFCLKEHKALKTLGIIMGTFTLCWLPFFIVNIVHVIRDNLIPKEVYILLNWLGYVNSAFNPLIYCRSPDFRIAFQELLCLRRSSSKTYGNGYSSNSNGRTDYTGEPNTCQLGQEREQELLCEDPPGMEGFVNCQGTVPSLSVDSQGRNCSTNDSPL
T3 sequence (H0W3H1 1-470): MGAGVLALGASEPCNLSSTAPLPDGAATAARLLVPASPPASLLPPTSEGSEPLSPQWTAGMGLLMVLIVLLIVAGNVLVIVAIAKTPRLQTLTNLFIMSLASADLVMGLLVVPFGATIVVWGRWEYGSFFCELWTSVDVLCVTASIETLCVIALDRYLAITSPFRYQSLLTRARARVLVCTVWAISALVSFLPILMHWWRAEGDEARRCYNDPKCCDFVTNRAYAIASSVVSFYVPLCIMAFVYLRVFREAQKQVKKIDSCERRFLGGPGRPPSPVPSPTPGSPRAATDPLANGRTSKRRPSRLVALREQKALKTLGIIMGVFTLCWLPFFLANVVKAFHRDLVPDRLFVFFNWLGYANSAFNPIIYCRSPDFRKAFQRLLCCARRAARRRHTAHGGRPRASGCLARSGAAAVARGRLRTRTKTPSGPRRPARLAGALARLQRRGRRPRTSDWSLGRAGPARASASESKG
T1 sequence (P26255 whole entry): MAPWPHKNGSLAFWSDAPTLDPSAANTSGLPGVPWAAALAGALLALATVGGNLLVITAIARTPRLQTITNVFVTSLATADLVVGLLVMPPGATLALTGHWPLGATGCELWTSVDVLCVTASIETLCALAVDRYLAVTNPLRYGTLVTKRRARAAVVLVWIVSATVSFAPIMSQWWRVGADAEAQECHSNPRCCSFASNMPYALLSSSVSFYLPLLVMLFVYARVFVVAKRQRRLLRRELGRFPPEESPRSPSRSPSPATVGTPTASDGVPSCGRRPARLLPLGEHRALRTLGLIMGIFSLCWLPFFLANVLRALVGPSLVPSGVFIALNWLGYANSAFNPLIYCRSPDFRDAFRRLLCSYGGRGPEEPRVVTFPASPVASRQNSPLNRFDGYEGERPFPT

In the case of `C[C@H](Cc1ccc2c(c1)OC(C(=O)[O-])(C(=O)[O-])O2)NC[C@H](O)c1cccc(Cl)c1.[Na+].[Na+]` (stereo in doubt) [CL2, (R*,R*)-(±)-5(2-((2-(3-chlorophenyl)-2-hydroxyethyl)amino)propyl)-1,3-benzodioxole-2,2-dicarboxylic acid, disodium salt], the “Plasma Glucose Levels” value [1, 7] is reported as 453 mg/100 ml, the “Plasma Glucose Levels” value [1, 8] is reported as 236 mg/100 ml and the “Plasma Glucose Levels” value ([1]; dose 0.002 % wt of chow, week 5) is reported as 190 mg/100 ml. The “Plasma Glucose Levels” value ([1]; dose 0.002 % wt of chow, week 7) was 25 mg/100 ml, the “Plasma Glucose Levels” value [1, 9] was 452 mg/100 ml and the “Plasma Glucose Levels” value [1, 10] was 155 mg/100 ml. For the same molecule, the “Plasma Glucose Levels” value ([1]; dose 0.005 % wt of chow, week 5) was 145 mg/100 ml, the “Plasma Glucose Levels” value ([1]; dose 0.005 % wt of chow, week 7) was 16 mg/100 ml and the “Plasma Glucose Levels” value ([2]; dose 0.0005 % wt of chow, week 0 (before treatment)) was 218 mg/100 ml. The “Plasma Glucose Levels” value ([2]; dose 0.0005 % wt of chow, week 1) was 193 mg/100 ml, the “Plasma Glucose Levels” value ([2]; dose 0.0005 % wt of chow, week 4) was 240 mg/100 ml and the “Plasma Glucose Levels” value [2, 7] was 220 mg/100 ml. For the same molecule, the “Plasma Glucose Levels” value [2, 8] was 162 mg/100 ml, the “Plasma Glucose Levels” value [2, 11] was 197 mg/100 ml and the “Plasma Glucose Levels” value [2, 9] was 220 mg/100 ml. The “Plasma Glucose Levels” value [2, 10] was 145 mg/100 ml, the “Plasma Glucose Levels” value [2, 12] was 165 mg/100 ml and the “β3 potency in comparison” value [3] was “slightly greater β3 potency than does BRL2”. The EC50 [4] was > 100 µM, the “β2 activity” value [4, 13] was “only minimal β2 activity at 1×10^-4 M” and the “Average Daily Food Consumption” value ([5]; dose 0.002 % wt of chow) was 5.2 g/animal. For the same molecule, the Change in weight [5, 8] was 1.6 grams, the Change in weight ([5]; dose 0.002 % wt of chow, week 2) was 4.1 grams and the Change in weight ([5]; dose 0.002 % wt of chow, week 3) was 4.7 grams. The Change in weight [5, 11] was 7.3 grams, the “Average Daily Food Consumption” value ([5]; dose 0.005 % wt of chow) was 5.9 g/animal and the Change in weight [5, 10] was 0.2 grams. The Change in weight ([5]; dose 0.005 % wt of chow, week 2) was 1.6 grams, the Change in weight ([5]; dose 0.005 % wt of chow, week 3) was 2.4 grams and the Change in weight [5, 12] was 4.7 grams. For the same molecule, the EC50 [6] was > 1000 µM and the “β1 activity” value [6, 13] was “no measurable β1 activity”.
